From PMC8482623 (Nature structural & molecular biology, 2020)

Key:
[1] = molecular target: T1, mBcs1 (full-length mouse Bcs1; mBcs1-His) (Mus musculus, UniProt Q9CZP5); experiment: blue-native PAGE band shift; format: binding; conditions: conformational change seen as band shift
T1 sequence (Q9CZP5 1-418): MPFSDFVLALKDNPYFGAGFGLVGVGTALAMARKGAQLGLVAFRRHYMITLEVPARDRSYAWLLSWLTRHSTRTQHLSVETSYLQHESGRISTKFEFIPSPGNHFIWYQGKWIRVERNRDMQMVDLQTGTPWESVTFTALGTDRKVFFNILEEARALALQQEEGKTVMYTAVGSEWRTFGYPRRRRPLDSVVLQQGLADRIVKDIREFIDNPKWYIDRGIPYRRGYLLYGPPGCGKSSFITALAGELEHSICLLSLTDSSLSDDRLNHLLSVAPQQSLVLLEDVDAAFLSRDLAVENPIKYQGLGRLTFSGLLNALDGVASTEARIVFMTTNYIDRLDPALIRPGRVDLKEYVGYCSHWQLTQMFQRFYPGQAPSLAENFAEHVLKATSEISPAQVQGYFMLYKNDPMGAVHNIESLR

[2] = molecular target: ΔNmBcs1 (Mus musculus, UniProt Q9CZP5); experiment: X-ray crystal structure, […] Å; conditions: 2 mM AMP-PNP, 20 mM MgCl2, pH 7.5; nucleotide-binding site

## Nc1ncnc2c1ncn2[C@@H]1O[C@H](COP(=O)(O)OP(=O)(O)NP(=O)(O)O)[C@@H](O)[C@H]1O [AMP-PNP]
[1]
  blue-native PAGE band shift: incubation of ATPγS or AMP-PNP (nonhydrolyzable ATP) caused a shift in the protein band
[2]
  X-ray crystal structure, 2.2 Å: yielding a heptameric structure with clearly visible bound AMP-PNP
